Data taken from patent US8541617B2, “Cycloalkylphenyl substituted cyclic ketoenols” (Bayer Cropscience AG, priority 2006, dated 2013).

Legend:
Summer barley = assay: Example C: Herbicidal post-emergence action, use of safeners (crop plant damage); type: in vivo; details: for Summer barley observed (%): no safener; for Summer barley observed (%), 10 days after application / Summer barley observed (%), 28 days after application: greenhouse container trial;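 on Summer barley observed (%), 10 days after application: 100% means plants died and 0% means like untreated controls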;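 on Summer barley observed (%), 28 days after application: 100% means plants died and 0% means like untreated controls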
Protocol: (§1) Herbicidal Post-Emergence Action
(§2) Seeds of monocotylos and dicotylos weed and crop plants are placed into sandy lawn in wood fibre pots or in plastic pots, covered with soil and cultivated in a greenhouse, during the vegetation period also outdoors outside of the greenhouse, under good growth conditions. Two to three weeks after sowing, the test plants are treated at the one- to three-leaf stage. The test compounds, formulated as wettable powders (WP) or liquid (EC), are, in the various dosages at a water application rate of 300 l/ha (converted), with wetting agent (0.2 to 0.3%) added, sprayed onto the plants and the surface of the soil. […]
(§3) If it is additionally to be tested as to whether safeners can improve the plant compatibility of test substances in the case of crop plants, the following options are used for applying the safener: • seeds of the crop plants are, before sowing, dressed with safener substance (the amount of safener stated in percent, based on the weight of the seed) • before the application of the test substances, the crop plants are sprayed with the safener at a certain application rate per hectare (usually 1 day before the application of the test substances) • the safener is applied together with the test substance as a tank mix (the amount of safener is stated in g/ha or as a ratio, based on the herbicide).
(§4) By comparing the effect of test substances on crop plants without or with safener treatment, it is possible to assess the effect of the safener substance.
(§5) Container trials in the greenhouse, treatment with safener 1 day prior to herbicide application

Summer wheat = assay: as above; type: in vivo; details: for Summer wheat observed (%): no safener; for Summer wheat observed (%), 10 days after application / Summer wheat observed (%), 28 days after application: greenhouse container trial;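 on Summer wheat observed (%), 10 days after application: 100% means plants died and 0% means like untreated controls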;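 on Summer wheat observed (%), 28 days after application: 100% means plants died and 0% means like untreated controls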
Protocol: as §1, §2, §3, §4, §5

[1] = logP determination by HPLC on a reverse-phase column (C 18), EEC Directive 79/831 Annex V.A8; type: physicochemical; details: HPLC reverse-phase C 18, 43° C., acidic range (pH 2.3), 0.1% aqueous phosphoric acid/acetonitrile
Protocol: The logP values given in the table were determined in accordance with EEC Directive 79/831 Annex V.A8 by HPLC (High Performance Liquid Chromatography) on a reverse-phase column (C 18). Temperature: 43° C.
Mobile phases for the determination in the acidic range (pH 2.3): 0.1% aqueous phosphoric acid, acetonitrile; linear gradient from 10% acetonitrile to 90% acetonitrile.
Calibration was carried out using unbranched alkan-2-ones (having 3 to 16 carbon atoms) with known logP values (determination of the logP values by retention times using linear interpolation between two successive alkanones).

[2] = test system: cotton aphid (Aphis gossypii); assay: Example N: Aphis gossypii test, with ammonium/phosphonium salts and penetrants; type: in vivo; details: 20 ppm
Protocol: Solvent: 7 parts by weight of dimethylformamide
Emulsifier: 2 parts by weight of alkylaryl polyglycol ether
To produce a suitable preparation of active compound, 1 part by weight of active compound is mixed with the stated amounts of solvent and emulsifier and the concentrate is diluted with emulsifier-containing water to the desired concentration. For the application with penetrants (rapeseed oil methyl ester 500 EW), ammonium or phosphonium salts or ammonium salts and penetrants (rapeseed oil methyl ester 500 EW), these are in each case added in a concentration of 1000 ppm to the spray liquor.
Cotton plants (Gossypium hirsutum) which are heavily infested by the cotton aphid (Aphis gossypii) are treated by being sprayed to run off point with the preparation of active compound at the desired concentration.
After the desired period of time, the kill in % is determined. 100% means that all aphids have been killed; 0% means that none of the aphids have been killed.
In this test, for example, the following compounds of the Preparation Examples show good efficacy: see table

[3] = 10 days after application, 12.5 g of a.i./ha
[4] = 10 days after application, 25 g of a.i./ha
[5] = 10 days after application, 50 g of a.i./ha
[6] = 10 days after application, 100 g of a.i./ha
[7] = 28 days after application, 50 g of a.i./ha
[8] = 28 days after application, 100 g of a.i./ha
[9] = 28 days after application, 12.5 g of a.i./ha
[10] = 28 days after application, 25 g of a.i./ha

For `CCOC(=O)OC1=C(c2c(C)cc(C)cc2C2CC2)C(=O)NC12CCC(OC)CC2` (single isomer, unassigned) [Example I-1-c-7], the “Summer barley observed (%)” value (Summer barley; [3]) was 10%, the “Summer barley observed (%)” value (Summer barley; [4]) was 40% and the “Summer barley observed (%)” value (Summer barley; [5]) was 60%. For the same compound, the “Summer barley observed (%)” value (Summer barley; [6]) was 90%, the “Summer barley observed (%)” value (Summer barley; [7]) was 50% and the “Summer barley observed (%)” value (Summer barley; [8]) was 95%. For the same compound, the “Summer wheat observed (%)” value (Summer wheat; [3]) was 20%, the “Summer wheat observed (%)” value (Summer wheat; [4]) was 60% and the “Summer wheat observed (%)” value (Summer wheat; [9]) was 10%. For the same compound, the “Summer wheat observed (%)” value (Summer wheat; [10]) was 20% and the “Summer wheat observed (%)” value (Summer wheat; [7]) was 80%.
With `COC1CCC2(CC1)OC(=O)C(c1c(C)cc(C3CC3)cc1C)=C2O` (single isomer, unassigned) [Example I-2-a-3] the logP [1] was 2.64.
`COC1CCC2(CC1)OC(=O)C(c1c(C)cc(C3CC3)cc1C)=C2O` (single isomer, unassigned) [Example I-2-a-4] gave a logP [1] of 2.88.
For `CCc1cc(C)cc(C2CC2)c1C1=C(O)C(C)(C)NC1=O` [Example I-1-a-5], the “Summer barley observed (%), 10 days after application” value (from here on “Summer barley observed (%), 10 days”) (Summer barley; 12.5 g of a.i./ha) was 50%, the “Summer barley observed (%), 28 days after application” value (“Summer barley observed (%), 28 days” below) (Summer barley; 12.5 g of a.i./ha) was 15% and the “Summer barley observed (%), 10 days” value (Summer barley; 25 g of a.i./ha) was 70%. The “Summer barley observed (%), 28 days” value (Summer barley; 25 g of a.i./ha) was 25%, the “Summer barley observed (%), 10 days” value (Summer barley; 50 g of a.i./ha) was 80% and the “Summer barley observed (%), 28 days” value (Summer barley; 50 g of a.i./ha) was 40%. For the same compound, the “Summer wheat observed (%), 10 days after application” value (shortened to “Summer wheat observed (%), 10 days”) (Summer wheat; 6.25 g of a.i./ha) was 50%, the “Summer wheat observed (%), 28 days after application” value (“Summer wheat observed (%), 28 days” below) (Summer wheat; 6.25 g of a.i./ha) was 10% and the “Summer wheat observed (%), 10 days” value (Summer wheat; 12.5 g of a.i./ha) was 60%. For the same compound, the “Summer wheat observed (%), 28 days” value (Summer wheat; 12.5 g of a.i./ha) was 40%, the “Summer wheat observed (%), 10 days” value (Summer wheat; 25 g of a.i./ha) was 70% and the “Summer wheat observed (%), 28 days” value (Summer wheat; 25 g of a.i./ha) was 60%. For the same compound, the “Summer wheat observed (%), 10 days” value (Summer wheat; 50 g of a.i./ha) was 70% and the “Summer wheat observed (%), 28 days” value (Summer wheat; 50 g of a.i./ha) was 75%.
For `COC1CCC2(CC1)NC(=O)C(c1c(C)cc(C)cc1C1CC1)=C2O` (centres unmarked) [Example I-1-a-7], the “Kill (%) after 6 d +AS + RME in each case 1000 ppm” value ([2]; + AS + RME in each case 1000 ppm) was 99%, the “Kill (%) after 6 d +AS 1000 ppm” value ([2]; + ammonium sulphate 1000 ppm) was 65% and the “Kill (%) after 6 d +RME 1000 ppm” value ([2]; + rapeseed oil methyl ester 1000 ppm) was 75%. For the same compound, the “Kill (%) after 6 d” value ([2]; no additive) was 55%, the “Summer barley observed (%)” value (Summer barley; [3]) was 10% and the “Summer barley observed (%)” value (Summer barley; [4]) was 50%. For the same compound, the “Summer barley observed (%)” value (Summer barley; [5]) was 60%, the “Summer wheat observed (%)” value (Summer wheat; [9]) was 30% and the “Summer wheat observed (%)” value (Summer wheat; [10]) was 60%. For the same compound, the “Summer wheat observed (%)” value (Summer wheat; [7]) was 70% and the “Summer wheat observed (%)” value (Summer wheat; [8]) was 80%.
In the case of `Cc1cc(C)c(C2=C(O)C(C)(C)NC2=O)c(C2CC2)c1` [Example I-1-a-8], the “Summer wheat observed (%)” value (Summer wheat; [4]) is reported as 25%, the “Summer wheat observed (%)” value (Summer wheat; [5]) is reported as 30% and the “Summer wheat observed (%)” value (Summer wheat; [6]) is reported as 30%.
With `CCOC1CCCC2(CC1)NC(=O)C(c1c(C)cc(C)cc1C1CC1)=C2O` (centres unmarked) [Example I-1-a-9] the “Summer wheat observed (%)” value (Summer wheat; [3]) was 60%, the “Summer wheat observed (%)” value (Summer wheat; [4]) was 65% and the “Summer wheat observed (%)” value (Summer wheat; [10]) was 50%.
For `CCCCOC1CCCC2(C1)NC(=O)C(c1c(Cl)cc(C)cc1C1CC1)=C2O` (centres unmarked) [Example I-1-a-12], the “Summer wheat observed (%), 10 days” value (Summer wheat; 6.25 g of a.i./ha) was 10%, the “Summer wheat observed (%), 10 days” value (Summer wheat; 12.5 g of a.i./ha) was 40% and the “Summer wheat observed (%), 10 days” value (Summer wheat; 25 g of a.i./ha) was 50%. For the same compound, the “Summer wheat observed (%)” value (Summer wheat; 10 days after application, 6.25 g of a.i./ha) was 30%, the “Summer wheat observed (%)” value (Summer wheat; [3]) was 50% and the “Summer wheat observed (%)” value (Summer wheat; [4]) was 60%. The “Summer wheat observed (%)” value (Summer wheat; [5]) was 60%, the “Summer wheat observed (%)” value (Summer wheat; 28 days after application, 6.25 g of a.i./ha) was 5% and the “Summer wheat observed (%)” value (Summer wheat; [9]) was 25%. For the same compound, the “Summer wheat observed (%)” value (Summer wheat; [10]) was 65% and the “Summer wheat observed (%)” value (Summer wheat; [7]) was 65%.
With `CCOC1CCCC2(C1)NC(=O)C(c1c(Cl)cc(C)cc1C1CC1)=C2O` (centres unmarked) [Example I-1-a-14] the “Summer barley observed (%)” value (Summer barley; [9]) was 20%, the “Summer barley observed (%)” value (Summer barley; [10]) was 60% and the “Summer barley observed (%)” value (Summer barley; [7]) was 70%. For the same compound, the “Summer wheat observed (%)” value (Summer wheat; [9]) was 20%, the “Summer wheat observed (%)” value (Summer wheat; [10]) was 50% and the “Summer wheat observed (%)” value (Summer wheat; [7]) was 75%. For the same compound, the “Summer wheat observed (%)” value (Summer wheat; [8]) was 85%.
